Patent US20190175519A1, “Naloxone Transdermal Delivery Devices and Methods for Using the Same” (Teikoku Pharma USA, Inc., priority 2017, published 2019)

Test: Pharmacokinetics of transdermal naloxone formulations compared to intravenously administered naloxone
Set-up: species or system Gottingen mini-pigs
Conditions: female, Gottingen, minipig, in vivo; IV bolus 0.01 mg/kg via marginal ear vein; first time point collected; post dose
Excerpt: The purpose of this study was to determine the dermal irritation and pharmacokinetics of two transdermal naloxone formulations when worn for three days by naïve female Gottingen mini-pigs and to compare the pharmacokinetic transdermal profiles to the PK of intravenously (IV) administered naloxone.
Test materials (Naloxone Transdermal Formulations 1 & 2) were in the form of a single patch that was applied to the prepared skin site of the animals and remained on for a period of three (3) days.
The positive control article (marketed formulation), Naloxone (Narcan 0.4 mg/mL) was diluted with sterile 0.9% normal saline to a concentration of 0.04 mg/mL in order to achieve a desired dose volume of 0.25 mL/kg and dosage of 0.01 mg/kg. […]
Group 3: Narcan intravenous formulation (0.4 mg/mL) was diluted with sterile 0.9% normal saline to a concentration of 0.04 mg/mL. The dose volumes were calculated using the individual body weights of the pigs on the day of dosing. […]
The time of Test Material patch application and removal were recorded for each animal so that dermal scoring and PK time-points were calculated. The time of intravenous injection was also recorded so that PK time-points were calculated.

C=CCN1CC[C@]23c4c5ccc(O)c4O[C@H]2C(=O)CC[C@@]3(O)[C@H]1C5 [Naloxone, 17-allyl-4,5α-epoxy-3,14-dihydroxymorphinan-6-one]
Tmax: 5 min
